Measured values published in patent US20250276996A1, “CATIONICALLY-ENFRAMED HIGH DENSITY AROMATIC PEPTIDES” (Research Foundation of the City University of New York, priority 2022, published 2025).
Non-standard residues stand in square brackets, D forms with d. Residues, ends and D or L forms follow the SMILES beside them. *: point of attachment. Biotin = O=C1N[C@H]2[C@H](CS[C@H]2CCCCC(=O)*)N1

Experiments:
ARPE-19 cells = assay: Mitochondrial potential in the presence of CCCP (TMRM); type: cell-based; details: 10 μM CCCP, TMRM
Experimental: Effects of peptides on mitochondrial potential in the presence of Carbonyl cyanide m-chlorophenylhydrazone (CCCP): ARPE-19 cells (ATTC-CRL-2302) (5×10^4 cells) were seeded in 35 mm glass dishes in DMEM/F12 medium with 10% FBS for 24 hr. On the day of the experiment, cells were cultured in DMEM/F12 in the presence of different concentrations of biotin-HDAP2 for 60 min (FIG. 17B). Then, cells were incubated with 10 μM CCCP in the presence of 5 nM TMRM, 100 nM Mito View Green, and 10 μg/ml Hoechst 33342 for 15 min at 37° C. Fluorescent images were immediately obtained with a Nikon Eclipse 50i fluorescence microscope (60× objective) using FITC (Mito View Green), Texas Red (TMRM), and DAPI (Hoechst) filters. Images were collected from three independent experiments, using 4-6 random fields for each treatment group, and imaged and analyzed as described for NR.

[1] = Nile Red fluorescence shift in POPC-CL liposomes; type: binding, bovine; details: 638 nm before the shift
Experimental: The resulting multilamellar vesicles were vortexed lightly and sized into small unilamellar vesicles by heated bath sonication for 25 min. All liposomes were cooled to ambient temperature before use.
Interactions between biotin-HDAP2 and Phospholipid liposomes measured by Nile Red fluorescence: The hydrophobicity of biotin-HDAP2 and phospholipids was examined by changes in the spectral fluorescence shift and intensity of Nile Red (NR, 10 μM). NR increases its intensity of fluorescence when combined with the hydrophobic environments of acyl chains of phospholipids, and produces a blue shift when hydrophobicity is increased. All experiments were done with 30 μM of either CL or POPC and 30 μM of biotin-HDAP2 in 10 mM Hepes (pH 7.4) to optimize the electrostatic interactions of peptides with phospholipids. The solvents used to dissolve the various phospholipids (chloroform, methanol, and ethanol) had negligible effects on the fluorescence spectra.

Question: Which “effect on CCCP-mediated mitochondrial depolarization” value (ARPE-19 cells) does the source give for `N=C(N)NCCC[C@@H](NC(=O)[C@H](Cc1ccccc1)NC(=O)[C@H](Cc1ccccc1)NC(=O)[C@@H](CCCNC(=N)N)NC(=O)CCCC[C@@H]1SC[C@@H]2NC(=O)N[C@@H]21)C(N)=O` [biotin-HDAP2, Biotin-dArg-Phe-Phe-dArg-NH2] (Biotin-[dR]FF[dR]-NH2) here?
Answer: The value was “prevented CCCP-mediated decreases in the mitochondrial membrane potential in a dose-dependent manner”.

Question: And the “effect on CCCP-mediated mitochondrial depolarization” value (ARPE-19 cells; listed as Biotin-HDAP2)?
Answer: Its value is “prevented mitochondrial depolarization in a dose-dependent manner”.

Question: What about the “Nile Red emission after blue shift” value [1] of the same molecule?
Answer: Its value is 618 nm.
